Assay results taken from patent US20080287398A1, “COLD MENTHOL RECEPTOR-1 ANTAGONISTS” (priority 2007, published 2008).
Where “and” joins values, the source holds several entries; their conditions need not be identical. Identical values can stand only once. Like-named read-outs stand apart in the source and are kept apart here.

Target: T1, canine TRPM8 (Canis lupus familiaris, UniProt Q1A7N1)
T1 construct: expressed in transfected cells
Experiment: In vitro canine TRPM8 functional assay (Ca2+-sensitive dye, FLIPR/FDSS, icilin activation)
Format: cell-based
Conditions: HEK293 cells expressing canine TRPM8, icilin activation; for % I (0.5 μM): 0.5 μM compound; for IC50: eight-point dose-response; for % I (1 μM): 1 μM compound
Protocol: The functional activity of compounds of Formula (I) was determined by measuring changes in intracellular calcium concentration using a Ca^2+-sensitive fluorescent dye. The changes in fluorescent signal were monitored by a fluorescence plate reader, either a FLIPR™ (Molecular Devices) or FDSS (Hamamatsu).
HEK293 cells stably expressing canine TRPM8 were routinely grown as monolayers in Dulbecco's minimum essential medium supplemented with 10% FBS, 1 mM L-glutamine, 100 units/mL penicillin, 100 ug/mL streptomycin and 400 μg/mL G418. Cells were maintained in 5% CO2 at 37° C. At 24 hrs prior to assay, cells were seeded in clear-base poly-D-lysine coated 384-well plates (BD Biosciences, NJ, USA) at a density of 5,000 cells per well in culture medium and grown overnight in 5% CO2 at 37° C. On assay day, growth media was removed and cells were loaded with Calcium 3 Dye (Molecular Devices) for 35 min at 37° C., under 5% CO2 and then for 25 min at room temperature and atmosphere. Subsequently, cells were tested for agonist-induced increases in intracellular Ca^2+ levels using FLIPR™ or FDSS. Cells were challenged with a compound of Formula (I) (at varying concentrations) and intracellular Ca^2+ was measured for 5 min prior to the addition of icilin to all wells to achieve a final concentration which produces approximately an 80% maximal response.
Basal FI was subtracted prior to normalizing data to percent of maximal response. Curves were generated using the average of quadruplicate wells for each data point, were analyzed using nonlinear regression of either sigmoidal dose response or sigmoidal dose response (variable slope). Finally, the EC50 and IC50 values were calculated with the best-fit dose curve determined by GraphPad Prism.

[1] = HEK293, read-out: % I (0.5 μM), 0.5 μM compound
[2] = HEK293, 0.5 μM compound, read-out: % I (0.5 μM)

T1 sequence (Q1A7N1 1-1104): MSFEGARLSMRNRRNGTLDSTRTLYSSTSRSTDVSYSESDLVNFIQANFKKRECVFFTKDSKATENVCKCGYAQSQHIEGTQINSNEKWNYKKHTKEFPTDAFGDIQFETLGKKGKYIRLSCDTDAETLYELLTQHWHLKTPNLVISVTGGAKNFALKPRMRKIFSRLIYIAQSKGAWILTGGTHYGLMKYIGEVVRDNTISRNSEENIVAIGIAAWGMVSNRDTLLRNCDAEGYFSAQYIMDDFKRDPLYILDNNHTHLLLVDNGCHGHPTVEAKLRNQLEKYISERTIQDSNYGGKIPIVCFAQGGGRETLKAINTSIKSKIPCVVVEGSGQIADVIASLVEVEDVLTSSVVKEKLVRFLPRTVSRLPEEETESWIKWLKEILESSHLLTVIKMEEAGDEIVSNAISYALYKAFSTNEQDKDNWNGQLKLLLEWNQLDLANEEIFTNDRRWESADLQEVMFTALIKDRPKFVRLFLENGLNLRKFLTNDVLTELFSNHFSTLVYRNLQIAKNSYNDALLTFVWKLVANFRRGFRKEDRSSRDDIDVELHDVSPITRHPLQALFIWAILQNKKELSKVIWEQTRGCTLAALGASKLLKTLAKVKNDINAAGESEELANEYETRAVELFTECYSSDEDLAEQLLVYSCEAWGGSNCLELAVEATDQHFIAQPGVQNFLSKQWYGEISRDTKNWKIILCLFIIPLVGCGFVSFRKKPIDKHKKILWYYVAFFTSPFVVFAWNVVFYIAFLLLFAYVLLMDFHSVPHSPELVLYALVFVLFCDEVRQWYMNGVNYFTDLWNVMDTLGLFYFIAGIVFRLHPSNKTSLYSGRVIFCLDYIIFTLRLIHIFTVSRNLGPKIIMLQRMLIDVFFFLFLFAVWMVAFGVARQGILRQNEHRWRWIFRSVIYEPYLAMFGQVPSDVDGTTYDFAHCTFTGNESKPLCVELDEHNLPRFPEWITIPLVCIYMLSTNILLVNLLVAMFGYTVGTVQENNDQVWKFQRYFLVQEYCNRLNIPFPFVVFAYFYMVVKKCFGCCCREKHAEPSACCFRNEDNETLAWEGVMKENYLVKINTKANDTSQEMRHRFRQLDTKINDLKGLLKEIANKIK

Structure (SMILES) | % I (0.5 μM) | IC50 (read-out: IC50) | also measured
CCOP(=O)(OCC)C(Cc1cccc(Cl)c1F)c1sc2ccccc2c1Br (racemic) [Cpd 143] | 101% | 0.067 µM | –
COP(=O)(OC)C(Cc1ccc(F)c(F)c1)c1sc2ccccc2c1Br (stereo not shown) [Cpd 201] | – | 0.133 µM | % I (1 μM): 100%
CCOP(=O)(OCC)C(Cc1cccc(C(F)(F)F)c1F)c1sc2ccccc2c1Cl (racemic) [Cpd 281] | 102% | 0.131 µM | –
CCOP(=O)(OCC)C(Cc1ccccc1C(F)(F)F)c1sc2ccccc2c1Br (stereo not shown) [Cpd 260] | 103% | 0.077 µM and 0.056 µM | –
CCOP(=O)(OCC)C(Cc1ccc(F)c(F)c1)c1sc2ccccc2c1-c1ccsc1 (racemic) [Cpd 208] | 104% | 0.104 µM | –
COCCOCCOP(=O)(OCCOCCOC)C(Cc1ccc(F)c(F)c1)c1sc2ccccc2c1Br (racemic) [Cpd 210] | 62% | – | –
CCOP(=O)(OCC)C(Cc1c(F)c(F)c(OC)c(F)c1F)c1sc2ccccc2c1Br (racemic) [Cpd 160] | 87% | 0.06 µM | –
CCOP(=O)(OCC)C(Cc1cccc(N)c1)c1sc2ccccc2c1Br (stereo not shown) [Cpd 318, [2-(3-Amino-phenyl)-1-(3-bromo-benzo[b]thiophen-2-yl)-ethyl]-phosphonic acid diethyl ester] | – | – | inhibition at 0.5 µM [1]: 100%; IC50 (IC50 (μM)): 0.211 µM
CC(C)OP(=O)(OC(C)C)C(Cc1ccc(F)c(F)c1)c1sc2ccccc2c1C(C)C (stereo not shown) [Cpd 19] | – | 0.068 µM | % I (1 μM): 100%
CCOP(=O)(OCC)C(Cc1cccc([N+](=O)[O-])c1)c1sc2ccccc2c1Br (stereo not shown) [Cpd 315] | – | – | inhibition at 0.5 µM [1]: 103%; IC50 (IC50 (μM)): 0.041 µM
CCOP(=O)(OCC)C(Cc1cccc(C(F)(F)F)c1F)c1sc2ccccc2c1C (stereo not shown) [Cpd 37] | – | 0.127 µM | % I (1 μM): 100%
CCOP(=O)(OCC)C(Cc1cc(F)c(Cl)cc1Cl)c1sc2ccccc2c1C (stereo not shown) [Cpd 76] | – | 0.4 µM | % I (1 μM): 100%
CCOP(=O)(OCC)C(Cc1ccc(C#N)cc1)c1sc2ccccc2c1Br (stereo not shown) [Cpd 312] | 102% | 0.089 µM | –
CCOP(=O)(OCC)C(Cc1ccc(F)cc1)c1sc2ccccc2c1Cl (racemic) [Cpd 284] | 103% and 102% | 0.079 µM and 0.065 µM | –
CC(C)OP(=O)(OC(C)C)C(Cc1ccc(F)c(C(F)(F)F)c1)c1c(Br)c2ccccc2n1C(=O)OC(C)(C)C (stereo not shown) [Cpd 327, 3-Bromo-2-[1-(diisopropoxy-phosporyl)-2-(4-fluoro-3-trifluoromethyl-phenyl)-ethyl]-indole-1-carboxylic acid tert-butyl ester] | 44% | – | –
CCOP(=O)(OCC)C(Cc1ccccc1Cl)c1sc2ccccc2c1Cl (stereo not shown) [Cpd 269] | 102% | 0.162 µM | –
CC(C)OP(=O)(OC(C)C)C(Cc1cccc(C(F)(F)F)c1Cl)c1sc2ccccc2c1Br (stereo not shown) [Cpd 268] | 104% | 0.034 µM | –
CC(C)OP(=O)(OC(C)C)C(Cc1ccc(F)c(C(F)(F)F)c1)c1c(Br)c2ccccc2n1C (stereo not shown) [Cpd 328, [1-(3-Bromo-1-methyl-1H-indol-2-yl)-2-(4-fluoro-3-trifluoromethyl-phenyl)-ethyl]-phosphonic acid diisopropyl ester] | – | 0.193 µM | inhibition at 0.5 µM [2]: 102%
CCOP(=O)(OCC)C(Cc1ccc(F)c(F)c1)c1sc2cccc(F)c2c1Br (racemic) [Cpd 224] | 102% | 0.044 µM | –
CC(C)OP(=O)(OC(C)C)C(Cc1cccc(F)c1)c1cc2ccccc2s1 (stereo not shown) [Cpd 133] | – | 0.34 µM | % I (1 μM): 101%
CCOP(=O)(OCC)C(Cc1ccc(C(F)(F)F)cc1)c1sc2ccccc2c1Br (racemic) [Cpd 154] | 103% | 0.027 µM | –
CC(C)OP(=O)(OC(C)C)C(Cc1ccc(S(=O)(=O)C(F)(F)F)cc1)c1sc2ccccc2c1Cl (stereo not shown) [Cpd 264] | 103% | 0.029 µM | –
CCOP(=O)(OCC)C(Cc1cc(C(F)(F)F)ccc1F)c1sc2ccccc2c1C (stereo not shown) [Cpd 67] | – | 0.33 µM | % I (1 μM): 100%

Structure (SMILES) | % I (0.5 μM) | IC50 (read-out: IC50) | also measured
CC(C)OP(=O)(OC(C)C)/C(=C/c1ccc(F)c(F)c1)c1sc2ccccc2c1Br [Cpd 334, (E)-[1-(3-Bromo-benzo[b]thiophen-2-yl)-2-(3,4-difluoro-phenyl)-vinyl]-phosphonic acid diisopropyl ester] | – | 0.11 µM | inhibition at 0.5 µM [2]: 97%
CCOP(=O)(OCC)C(Cc1cc(C(F)(F)F)cc(C(F)(F)F)c1)c1sc2ccccc2c1Cl (racemic) [Cpd 282] | 100% | 0.235 µM | –
CCOP(=O)(OCC)C(Cc1ccc(F)c(Cl)c1)c1sc2ccccc2c1Cl (racemic) [Cpd 297] | 103% | 0.04 µM | –
CC(C)OP(=O)(OC(C)C)C(Br)(Cc1ccc(F)c(F)c1)c1sc2ccccc2c1Br (stereo not shown) [Cpd 93, [1-Bromo-1-(3-bromo-benzo[b]thiophen-2-yl)-2-(3,4-difluoro-phenyl)-ethyl]-phosphonic acid diisopropyl ester] | – | 0.58 µM | inhibition at 1 µM (HEK293, 1 μM compound, read-out: % I (1 μM)): 80%
CCOP(=O)(CC(C)C)C(Cc1ccc(F)c(F)c1)c1sc2ccccc2c1C (stereo not shown) [Cpd 6, [2-(3,4-Difluoro-phenyl)-1-(3-methyl-benzo[b]thiophene-2-yl)-ethyl]-isobutyl-phosphonic acid ethyl ester] | – | 0.028 µM | % I (1 μM): 100%
CCOP(=O)(OCC)C(Cc1cc(C(F)(F)F)ccc1Cl)c1sc2ccccc2c1C (stereo not shown) [Cpd 99] | – | 0.72 µM | % I (1 μM): 100%
CC(C)OP(=O)(OC(C)C)C(Cc1ccc(F)cc1)c1sc2ccccc2c1Cl (racemic) [Cpd 306] | 101% and 102% | – | –
CCOP(=O)(OCC)C(Cc1cc(F)cc(Cl)c1)c1sc2ccccc2c1Br (stereo not shown) [Cpd 259] | 103% | 0.023 µM | –
CC(C)OP(=O)(OC(C)C)C(Cc1cc(F)cc(F)c1)c1cc2ccccc2s1 (stereo not shown) [Cpd 121] | – | 0.35 µM | % I (1 μM): 103%
CCOP(=O)(OCC)C(Cc1cccc(Cl)c1Cl)c1cc2ccccc2s1 (stereo not shown) [Cpd 100] | – | 0.73 µM | % I (1 μM): 82%
CC(C)OP(=O)(OC(C)C)/C(=C/c1ccc(F)c(F)c1)c1cc2ccccc2s1 [Cpd 333, (E)-[1-Benzo[b]thiophen-2-yl-2-(3,4-difluoro-phenyl)-vinyl]-phosphonic acid diisopropyl ester] | – | 0.176 µM | inhibition at 0.5 µM [2]: 95%
CC(C)OP(=O)(OC(C)C)C(Cc1c(Cl)cccc1Cl)c1sc2ccccc2c1Cl (stereo not shown) [Cpd 183] | 103% | 0.131 µM | –
CCOP(=O)(OCC)C(Cc1ccc(F)c(F)c1)c1sc2ccccc2c1-c1cccc(F)c1 (stereo not shown) [Cpd 217, {2-(3,4-Difluoro-phenyl)-1-[3-(3-fluoro-phenyl)-benzo[b]thiophen-2-yl)-ethyl]-phosphonic acid diethyl ester] | – | – | inhibition at 0.5 µM [1]: 100%; IC50 (IC50 (μM)): 0.142 µM
CC(C)OP(=O)(OC(C)C)C(Cc1cccc(Cl)c1F)c1sc2ccccc2c1Cl (stereo not shown) [Cpd 185] | 103% | 0.071 µM | –
CCOP(=O)(OCC)C(Cc1cccc(Br)c1)c1sc2ccccc2c1Br (racemic) [Cpd 295] | 102% and 103% | 0.031 µM and 0.016 µM | –
CCOP(=O)(OCC)C(Cc1cc(C(F)(F)F)ccc1F)c1sc2ccccc2c1Br (racemic) [Cpd 146] | 103% | 0.1 µM | –
CC(C)OP(=O)(OC(C)C)C(Cc1cccc(OC(F)(F)F)c1)c1sc2ccccc2c1Cl (racemic) [Cpd 301] | 102% | 0.054 µM | –
CCOP(=O)(Cc1cc2ccccc2s1)OCc1ccc(F)cc1 (stereo not shown) [Cpd 107] | – | 1.3 µM | % I (5 μM) (5 μM compound): 99%
CCOP(=O)(OCC)C(Cc1ccc(F)c(C(F)(F)F)c1)c1sc2cccc(F)c2c1Br (racemic) [Cpd 223] | 102% | 0.052 µM | –
CC(C)OP(=O)(OC(C)C)C(Cc1ccc(F)c(C(F)(F)F)c1)c1c(Br)c2ccccc2n1S(C)(=O)=O (stereo not shown) [Cpd 330, [1-(3-Bromo-1-methanesulfonly-1H-indol-2-yl)-2-(4-fluoro-3-trifluoromethyl-phenyl)-ethyl]-phosphonic acid diisopropyl ester] | – | 0.137 µM | –
COc1cc(CC(c2sc3ccccc3c2Br)P(=O)(OC(C)C)OC(C)C)ccc1F (racemic) [Cpd 157] | 103% and 98% | – | –
CCOP(=O)(OCC)C(Cc1ccc(F)c(F)c1)c1sc2ccccc2c1-c1ccccc1 (stereo not shown) [Cpd 214, [2-(3,4-Difluoro-phenyl)-1-(3-phenyl-benzo[b]thiophen-2-yl)-ethyl]-phosphonic acid diethyl ester] | – | – | inhibition at 0.5 µM [1]: 101%; IC50 (IC50 (μM)): 0.08 µM
